What is called Km is the concentration of substrate that gives half-maximal velocity.

Each structure is given as a SMILES string.

The experiment deals with T1, XylR.
T1 construct: without predicted 21-residue signal peptide; His6 (C-terminal as printed), pET28a(+), E. coli BL21(DE3); 75 kDa on SDS-PAGE; motifs 159WDVVNEA163, 280TELD283, 624GLSMG628
The experiment can be described thus: spectrophotometric p-nitrophenol release at […] nm, Michaelis-Menten fit. In kind it is biochemical, uncultured bacterium (Nelore cattle rumen metagenome). The settings on record: 0.1 M sodium acetate pH 6.5, 37 °C; substrate 0.75 to 5 mM; esterase activity.

For `CC(=O)Oc1ccc([N+](=O)[O-])cc1` [C2, p-nitrofenyl acetate], the Michaelis constant (Km) came out at 2300 ± 400 µM.

(Values after publication PMC8128909, “Characterization of a new bifunctional endo-1,4-β-xylanase/esterase found in the rumen metagenome” (Scientific Reports, 2021).)
